# Measurements: patent publication US20210253562A1, “ACYLSUFONAMIDE COMPOUNDS USEFUL AS EP3 RECEPTOR ANTAGONISTS” (Janssen Pharmaceutica NV, priority 2018, published 2021)
# Target: T1, EP3 membrane (EP3 receptor) (Homo sapiens, UniProt P43115)
# T1 construct: purchased Millipore HTS092M
# T1 sequence (P43115 1-390): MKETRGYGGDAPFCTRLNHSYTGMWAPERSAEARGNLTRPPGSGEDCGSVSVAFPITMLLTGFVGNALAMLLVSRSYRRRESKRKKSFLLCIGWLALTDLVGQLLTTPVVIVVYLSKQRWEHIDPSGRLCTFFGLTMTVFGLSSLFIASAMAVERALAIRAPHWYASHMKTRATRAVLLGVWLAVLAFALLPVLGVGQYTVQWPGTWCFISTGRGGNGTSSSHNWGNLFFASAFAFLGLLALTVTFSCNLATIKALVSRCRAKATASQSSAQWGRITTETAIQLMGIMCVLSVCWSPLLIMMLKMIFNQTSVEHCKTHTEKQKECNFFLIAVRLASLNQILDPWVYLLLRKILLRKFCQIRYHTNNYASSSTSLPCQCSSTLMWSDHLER
# Experiment: [3H]-PGE2 binding; EP3 competition binding (SPA)
# Protocol: Biological Example 1: [3H]-PGE2 Binding
# EP3 competition binding was determined using the following materials and experimental conditions: • Beads=Perkin Elmer RPNQ0001 • [3H]PGE2=Perkin Elmer NET428025UC • 384-well plate=Perkin Elmer 6007290 • EP3 membrane=Millipore HTS092M • Membrane concentration=2 μg/well • Beads concentration=0.25 mg/well • [3H]-PGE2=2 nM; DMSO—0.1% • Binding buffer=50 mM Tris, 10 mM MgCl2, 1 mM EDTA, PH 7.4.
# The reaction system was prepared by mixing 5 μl of unlabeled compound; 5 μl of diluted [3H]-PGE2; 5 μl of diluted membrane; and 15 μl of SPA beads dissolved in binding buffer (adding in the following sequence: Unlabeled compound, [3H]-PGE2, Membrane and Beads).
# The binding buffer was removed from refrigeration (@ 4° C.) and allowed to warm to room temperature. Test compound (@ stock concentration of […] in DMSO) was serial dilutes (1:3) with 100% DMSO using Echo plate. Diluted test compound (30 nL) was dispensed to the 384-well assay plate (using Echo 550 Labcyte System). To each well was then added assay buffer (5 μl) and each well was spun. Beads were weighed out, dissolved in assay buffer to a concentration of 0.25 mg/15 μl. Original membrane was diluted with assay buffer to a concentration of 2 μg/5 μl. Original [3H]-PGE2 with diluted with assay buffer to a concentration of 12 nM. To each test well were then added diluted [3H]-PGE2 (5 μl), diluted membrane (5 μl), and dissolved beads (15 μl). The plate was equilibrated at room temperature on a plate shaker for 2 hours and then read with a TOPCOUNT scintillation plate reader. Results were analyzed using a Prism program with non-linear regression, one-site fit for Ki.
row,Ki [nM],SMILES
1,232,"Cn1nccc1S(=O)(=O)NC(=O)NC/C(F)=C1\CCCc2cnn(Cc3ccc(Cl)cc3Cl)c21 [Compound #168, (Z)—N-((2-(1-(2,4-dichlorobenzyl)-1,4,5,6-tetrahydro-7H-indazol-7-ylidene)-2-fluoroethyl)carbamoyl)-1-methyl-1H-pyrazole-5-sulfonamide]"
2,6,"O=C(NC/C=C1\CCCc2cnn(C3CCN(Cc4ccccc4)CC3)c21)NS(=O)(=O)c1cc(Cl)c(Cl)s1 [Compound #148, (E)-N-((2-(1-(1-benzylpiperidin-4-yl)-1,4,5,6-tetrahydro-7H-indazol-7-ylidene)ethyl)carbamoyl)-4,5-dichlorothiophene-2-sulfonamide]"
3,22,"COc1ccc(S(=O)(=O)NC(=O)NC/C(F)=C2\CCCc3cnn(Cc4ccc(Cl)cc4Cl)c32)cc1F [Compound #159, (Z)—N-((2-(1-(2,4-Dichlorobenzyl)-1,4,5,6-tetrahydro-7H-indazol-7-ylidene)-2-fluoroethyl)carbamoyl)-3-fluoro-4-methoxybenzenesulfonamide]"
4,10,"COc1ccc(S(=O)(=O)NC(=O)NC/C(F)=C2\COCc3cnn(Cc4ccc(Cl)cc4Cl)c32)cc1Cl [Compound #165, (E)-3-chloro-N-((2-(1-(2,4-dichlorobenzyl)-1,4-dihydropyrano[4,3-c]pyrazol-7(6H)-ylidene)-2-fluoroethyl)carbamoyl)-4-methoxybenzenesulfonamide]"
5,57,"COc1ccc(S(=O)(=O)NC(=O)NC/C(F)=C2\COCc3cnn(Cc4ccc(Cl)cc4Cl)c32)cc1F [Compound #161, (E)-N-((2-(1-(2,4-dichlorobenzyl)-1,4-dihydropyrano[4,3-c]pyrazol-7(6H)-ylidene)-2-fluoroethyl)carbamoyl)-3-fluoro-4-methoxybenzenesulfonamide]"
6,> 10000,"O=C(NC/C=C1\CCCc2cnn(Cc3ncc(-c4ccccc4)cn3)c21)NS(=O)(=O)c1cc(Cl)c(Cl)s1 [Compound #163, (E)-4,5-dichloro-N-((2-(1-((5-phenylpyrimidin-2-yl)methyl)-1,4,5,6-tetrahydro-7H-indazol-7-ylidene)ethyl)carbamoyl)thiophene-2-sulfonamide]"
7,6,"O=C(NC/C(F)=C1\COCc2onc(Cc3ccc(Cl)cc3Cl)c21)NS(=O)(=O)c1cc(Cl)c(Cl)s1 [Compound #145, (E)-4,5-dichloro-N-((2-(3-(2,4-dichlorobenzyl)-5H-pyrano[4,3-d]isoxazol-4(7H)-ylidene)-2-fluoroethyl)carbamoyl)thiophene-2-sulfonamide]"
8,18,"Cn1nccc1S(=O)(=O)NC(=O)NC/C=C1\CCCc2cnn(Cc3ccc(Cl)cc3Cl)c21 [Compound #171, (E)-N-((2-(1-(2,4-dichlorobenzyl)-1,4,5,6-tetrahydro-7H-indazol-7-ylidene)ethyl)carbamoyl)-1-methyl-1H-pyrazole-5-sulfonamide]"
9,62,"O=C(NC/C(F)=C1\COCc2cnn(C3CCN(c4ccc(F)cc4)CC3)c21)NS(=O)(=O)c1cc(Cl)c(Cl)s1 [Compound #144, (E)-4,5-dichloro-N-((2-fluoro-2-(1-(1-(4-fluorophenyl)piperidin-4-yl)-1,4-dihydropyrano[4,3-c]pyrazol-7(6H)-ylidene)ethyl)carbamoyl)thiophene-2-sulfonamide]"
10,217,"Cc1nc(C)c(S(=O)(=O)NC(=O)NC/C(F)=C2\COCc3cnn(Cc4ccc(Cl)cc4Cl)c32)s1 [Compound #160, (E)-N-((2-(1-(2,4-dichlorobenzyl)-1,4-dihydropyrano[4,3-c]pyrazol-7(6H)-ylidene)-2-fluoroethyl)carbamoyl)-2,4-dimethylthiazole-5-sulfonamide]"
11,25,"Cn1ncc2ccc(S(=O)(=O)NC(=O)NC/C(F)=C3\CCCc4cnn(Cc5ccc(Cl)cc5Cl)c43)cc21 [Compound #194, (Z)—N-((2-(1-(2,4-dichlorobenzyl)-1,4,5,6-tetrahydro-7H-indazol-7-ylidene)-2-fluoroethyl)carbamoyl)-1-methyl-1H-indazole-6-sulfonamide]"
12,22,"COCn1nc(Cc2ccc(Cl)cc2Cl)c2c1COC/C2=C(/F)CNC(=O)NS(=O)(=O)c1cc(Cl)c(Cl)s1 [Compound #146, (E)-4,5-dichloro-N-((2-(3-(2,4-dichlorobenzyl)-1-(methoxymethyl)-1,7-dihydropyrano[3,4-c]pyrazol-4(5H)-ylidene)-2-fluoroethyl)carbamoyl)thiophene-2-sulfonamide]"
13,6,"COc1nc2ccc(S(=O)(=O)NC(=O)NC/C(F)=C3\CCCc4cnn(Cc5ccc(Cl)cc5Cl)c43)cc2o1 [Compound #178, (Z)—N-((2-(1-(2,4-dichlorobenzyl)-1,4,5,6-tetrahydro-7H-indazol-7-ylidene)-2-fluoroethyl)carbamoyl)-2-methoxybenzo[d]oxazole-6-sulfonamide]"
14,1,"Cn1nc2c(c1Cc1ccc(Cl)cc1Cl)/C(=C(\F)CNC(=O)NS(=O)(=O)c1cc(Cl)c(Cl)s1)COC2 [Compound #189, (E)-4,5-dichloro-N-((2-(3-(2,4-dichlorobenzyl)-2-methyl-2,7-dihydropyrano[3,4-c]pyrazol-4(5H)-ylidene)-2-fluoroethyl)carbamoyl)thiophene-2-sulfonamide]"
15,153,"CC(=O)Nc1nc(C)c(S(=O)(=O)NC(=O)NC/C(F)=C2\CCCc3cnn(Cc4ccc(Cl)cc4Cl)c32)s1 [Compound #182, (Z)—N-(5-(N-((2-(1-(2,4-dichlorobenzyl)-1,4,5,6-tetrahydro-7H-indazol-7-ylidene)-2-fluoroethyl)carbamoyl)sulfamoyl)-4-methylthiazol-2-yl)acetamide]"
16,14,"Cc1nn(C)cc1S(=O)(=O)NC(=O)NC/C=C1\CCCc2cnn(Cc3ccc(Cl)cc3Cl)c21 [Compound #184, (E)-N-((2-(1-(2,4-dichlorobenzyl)-1,4,5,6-tetrahydro-7H-indazol-7-ylidene)ethyl)carbamoyl)-1,3-dimethyl-1H-pyrazole-4-sulfonamide]"
17,8,"Cc1ncc(S(=O)(=O)NC(=O)NC/C(F)=C2\CCCc3cnn(Cc4ccc(Cl)cc4Cl)c32)cc1Cl [Compound #197, (Z)-5-chloro-N-((2-(1-(2,4-dichlorobenzyl)-1,4,5,6-tetrahydro-7H-indazol-7-ylidene)-2-fluoroethyl)carbamoyl)-6-methylpyridine-3-sulfonamide]"
18,13,"O=C(NC/C(F)=C1\CCCc2cnn(C3CCN(c4ccc(F)cc4)CC3)c21)NS(=O)(=O)c1cc(Cl)c(Cl)s1 [Compound #154, (Z)-4,5-dichloro-N-((2-fluoro-2-(1-(1-(4-fluorophenyl)piperidin-4-yl)-1,4,5,6-tetrahydro-7H-indazol-7-ylidene)ethyl)carbamoyl)thiophene-2-sulfonamide]"
19,1,"Cc1cc(S(=O)(=O)NC(=O)NC/C=C2\CCCc3cnn(Cc4ccc(Cl)cc4Cl)c32)sc1Cl [Compound #185, (E)-5-chloro-N-((2-(1-(2,4-dichlorobenzyl)-1,4,5,6-tetrahydro-7H-indazol-7-ylidene)ethyl)carbamoyl)-4-methylthiophene-2-sulfonamide]"
20,8,"Cc1cc(S(=O)(=O)NC(=O)NC/C(F)=C2\CCCc3cnn(Cc4ccc(Cl)cc4Cl)c32)sc1C [Compound #142, (Z)—N-((2-(1-(2,4-dichlorobenzyl)-1,4,5,6-tetrahydro-7H-indazol-7-ylidene)-2-fluoroethyl)carbamoyl)-4,5-dimethylthiophene-2-sulfonamide]"
21,1,"Cc1cc(S(=O)(=O)NC(=O)NC/C=C2\CCCc3cnn(-c4ccc(Cl)cc4Cl)c32)sc1Cl [Compound #196, (E)-5-chloro-N-((2-(1-(2,4-dichlorophenyl)-1,4,5,6-tetrahydro-7H-indazol-7-ylidene)ethyl)carbamoyl)-4-methylthiophene-2-sulfonamide]"
22,59,"CC(C)n1cc(S(=O)(=O)NC(=O)NC/C=C2\CCCc3cnn(Cc4ccc(Cl)cc4Cl)c32)cn1 [Compound #173, (E)-N-((2-(1-(2,4-dichlorobenzyl)-1,4,5,6-tetrahydro-7H-indazol-7-ylidene)ethyl)carbamoyl)-1-isopropyl-1H-pyrazole-4-sulfonamide]"
23,75,"Cc1cc(S(=O)(=O)NC(=O)NC/C(F)=C2\CCCc3cnn(Cc4ccc(Cl)cc4Cl)c32)n(C)n1 [Compound #193, (Z)—N-((2-(1-(2,4-dichlorobenzyl)-1,4,5,6-tetrahydro-7H-indazol-7-ylidene)-2-fluoroethyl)carbamoyl)-1,3-dimethyl-1H-pyrazole-5-sulfonamide]"
